Experimental data published in EP0342433A2, “Substituted dibenzothiaphenes” (AMERICAN CYANAMID COMPANY, priority 1988, dated 1989).

Key:
IL-1 = IL-1 assay: supernatants of peritoneal exudate cells of orally treated mice, tested on thymocytes; type: in vivo, C57BI/6 mice; settings: oral dose 25, 100 or 200 mg/Kg (not stated which), PEC collected four days later, 3H-TdR in thymocytes; for IL-1 ASSAY + LPS: with Lipopolysaccharide (10 μg/ml); for IL-1 ASSAY - LPS: without Lipopolysaccharide
Method: Groups of C57BI/6 mice were treated orally with immunomodulator at doses of 25, 100 or 200 mg/Kg. Four days later peritoneal exudate cells (PEC) were collected and 1 x 10^5 cells were plated in RPMI-1640 medium containing 5% fetal calf serum (FCS). After 2 hours incubation at 37°C the non-adherent cells were washed off and the adherent cells were incubated for 24 hours in RPMI medium with 5% FCS with or without Lipopolysaccharide (10 u.g/ml). The following day the supernatants were collected and assayed for IL-1 on thymocytes. The cultures were incubated for 3 days and then pulsed with ^3H-TdR using 0.5 µCi/well. The cells were harvested and the number of counts per minute (CPM) was determined using a Beckman scintillation counter.

IL-2 = IL-2 assay: supernatants of Con A stimulated lymphocytes of treated mice, proliferation of indicator cells; type: in vivo; settings: mice treated with 100 mg/kg, Con A for 2 days; for IL-2 ASSAY CPM, % Supernatants Tested 5: 5 % supernatant; for IL-2 ASSAY CPM, % Supernatants Tested 10: 10 % supernatant; for IL-2 ASSAY CPM, % Supernatants Tested 20: 20 % supernatant
Method: Spleens were removed from mice and single-cell suspensions were prepared by teasing the spleens apart and rinsing through No. 40 and No. 80 stainless steel mesh screens. Erythrocytes were lysed by a 3- minute exposure to a 0.83% Tris-ammonium chloride solution. Cells were washed 3 times with HBSS and finally suspended in complete RPMI 1640 culture medium consisting of 5% FCS, 2mM L-glutamine, 5 x 10^-5M 2-mercaptoethanol, 10mM HEPES, 100 U/ml of penicillin, and 100 µg/ml of streptomycin. Cells were counted in a hemocytometer and the viability of test cells was always greater than 98% as judged by trypan blue dye exclusion.
IL-2 was made by stimulating 10^7 B6 splenocytes with 1 µg Con A in 1 ml medium. Supernatants were harvested 2 days later and residual Con A was removed by Sephadex G-50 absorption or a-methyl mannoside inactivation. IL-2 activity was tested in the thymocyte proliferation assay described above. Additionally, test samples were added to cultures of lymphoblasts prepared by a three-day Con A stimulation or to IL-2 dependent CT11-2 cells. The proliferation of these indicator cells was measured 24 hours later by ^3HTdR incorporation.
Lymphocytes prepared from normal mice or mice treated with 100 mg/kg of test compound were stimulated with Con A for 2 days. Culture supernatants were harvested and tested for putative IL-2 activity in 3 proliferation assays using thymocytes, lymphoblasts and CTLL-2 cells as indicators. Although supernatants from normal lymphocytes supported the growth of all indicator cells, lymphocytes from treated animals apparently produced more IL-2 as indicated by a greater degree of cell proliferation in all three test systems.

SRBC = assay: Anti-SRBC antibody assay (antibody forming cells, plaques); type: in vivo, mice; settings: oral, day 0, 200 or 600 mg/kg, SRBC IP day +4; for Production of Anti-SRBC Antibody, CPM Test No. 1: control 1,260; for Production of Anti-SRBC Antibody, CPM Test No. 2: control 830
Method: Compounds were given orally on day 0 at doses of 200 or 600 mg/kg. 0.1 ml of a 10% suspension of sheep RBC (Red Blood Cell) was given IP on day +4. Ten days later splenocytes were obtained from these mice and either 4 x 10^6 ot 2 x 10^6 splenocytes in 50 µl were mixed with 50 µl of a 15% suspension of SRBC containing guinea pig complement (1:4 dilution). 100 ul of this mixture was placed onto a slide culture and incubated for 30 to 45 minutes at 37°C. The number of antibody forming cells was determined by counting the number of visible plaques formed.

[1] = tested on: colony stimulating factor (CSF); assay: Colony stimulating factor production: mouse sera tested on normal bone marrow cells; type: in vivo, mice; settings: 10% test serum on normal marrow cells, 3 days, 3HTdR; for Production of Colony Stimulating Factor, CPM Test No. 2: control 3,118; for Production of Colony Stimulating Factor, CPM Test No. 1: control 548
Method: Mouse femurs were removed and the marrow cells collected by aspiration through a 23 gauge needle and dispensed into 5 ml of RPMI 1640 culture medium. Aliquots were diluted with a 2% solution of acetic acid containing 0.2% crystal violet and the number of nucleated cells per femur was determined by direct count in a hemocytometer.
Mouse sera were assayed for colony stimulating factor (CSF) in cultures of normal bone marrow cells. CSF was tested in a system in which 5 x 10" normal marrow cells were incubated with 10% test samples in each well of 96-well culture plates for 3 days. Proliferation of these cells was determined by ^3HTdR incorporation.

P815 tumor cells = assay: Macrophage mediated tumor cytostasis (activation of tumoricidal macrophages in compound-treated mice); type: in vivo; settings: macrophages from compound-treated mice vs normal control macrophages; 3HTdR incorporation into P815 cells; single oral dose, day 4
Text: The test compounds apparently were able to activate these cells in vivo to inhibit the growth of tumor cells in cultures. These "activated" macrophages were detectable in peritoneal exudates of treated mice on day 4 after receiving a single oral dose of the test compound. (Table I). […] (Tables II and III). […] (Table V). Mice treated with the test compounds also respond better to foreign antigens such as sheep red blood cells (SRBC) as shown by their ability to produce higher levels of antibody to this foreign protein. (Table IV). […]
P815 tumor cells obtained from D2 mice were washed twice with HBSS and suspended in 10% FCS- complete medium. Five x 10^3 P815 cells were added to culture wells containing B6 macrophages and the E:T ratios were determined by the numbers of PE cells added initially to each well. […] The amount of ^3HTdR incorporated into target cells was determined in a liquid scintillation counter. The mean cpm were obtained from triplicate cultures with results being presented as percent cytostasis calculated by the fol lowing formula: % cytostasis = (A-B)/A x 100 where A = cpm of cultures containing normal control macrophages; and B = cpm of cultures containing experimental macrophages obtained from compound-treated mice.

SMILES	IL-1 ASSAY + LPS (IL-1)	IL-1 ASSAY - LPS (IL-1)	IL-2 ASSAY CPM, % Supernatants Tested 5 (IL-2)	IL-2 ASSAY CPM, % Supernatants Tested 10 (IL-2)	IL-2 ASSAY CPM, % Supernatants Tested 20 (IL-2)	Production of Anti-SRBC Antibody, CPM Test No. 1 (SRBC)	Production of Colony Stimulating Factor, CPM Test No. 2 [1]	% Cytostasis (P815 tumor cells)	Production of Anti-SRBC Antibody, CPM Test No. 2 (SRBC)	Production of Colony Stimulating Factor, CPM Test No. 1 [1]
CCC(=Nc1ccc2c(c1)S(=O)(=O)c1cc(N=C(CC)N(C)C)ccc1-2)N(C)C [N , N"-3,7-Dibenzothiophenediylbis[N,N-dimethylpropanimidamide] S,S-dioxide]	56,015 CPM	31,260 CPM	3,238 CPM	9,050 CPM	14,568 CPM	1,437 CPM	6,650 CPM	–	–	–
CCC(=Nc1ccc2c(c1)S(=O)(=O)c1cc(F)ccc1-2)N(C)C [N'-(7-Fluoro-3-dibenzothienyl)N,N-dimethylpropanimidamide S,S-dioxide]	–	–	–	–	–	–	–	77.4%	1,474 CPM	1,353 CPM
CCC(=Nc1ccc2c(c1)-c1cc(N=C(CC)N(C)C)ccc1S2(=O)=O)N(C)C [N,N'"-2,8-Dibenzothiophenediyibis[N,N-dimethyipropanimidamide] S,S-dioxide]	44,983 CPM	52,160 CPM	2,766 CPM	6,457 CPM	11,288 CPM	1,029 CPM	6,513 CPM	–	–	–
CC(=O)Nc1ccc2c(c1)S(=O)(=O)c1cc(F)ccc1-2 [N-(7-Fluoro-3-dibenzothienyl)acetamide S,S-dioxide]	36,320 CPM	50,677 CPM	2,849 CPM	5,653 CPM	10,982 CPM	–	–	13.9%	1,469 CPM	976 CPM
